Data reported in patent publication US20060159772A1, “Fungicidal compositions” (priority 2002, published 2006).
Where two headings read alike, the source gives them in different places.

Tests used:
Plasmopara viticola = assay: Greenhouse test against downy mildew, preventive application to vine leaves (Example 4); format: in vivo, Plasmopara viticola on vine plants, cv. Dolcetto; conditions: for pest or weed control at 0.2 ppm: 0.20 ppm
Experimental: Determination of the fungicidal efficacy against downy mildew (Plasmopara viticola) in preventive application to vine leaves in greenhouse.
Leaves of vine plants, cv. Dolcetto, grown up in pots in conditioned environment at 25° C. and 60% relative humidity, were sprayed on both sides with hydroacetonic solutions (20% of acetone by volume) of the compounds under testing, the potassium phosphite (K2HPO3+KH2PO3) aqueous solutions and the mixtures of both components.
Seven days after the treatments, the leaves of treated plants and untreated controls were sprayed on the lower surface with aqueous suspension of Plasmopara viticola conidia (200.000 conidia/ml); after beeing kept for 24 h at 21° C. in environment moist at saturation, the plants were transfered to other conditioned environment at 70% relative humidity and 21° C. for 7 days.
After this period the degree of infection was evaluated and the activity of the compounds tested was expressed as % of disease control in comparison to the untreated controls: 100=healty plant; 0=completely infected plant.
In tables 6-20 are reported the results obtained for the compounds tested alone and in mixture with potassium phosphite at the indicated dosages. When the % disease control value found is higher than the value expected applying the Limpel formula (see Example 3), a synergic effect is verified.

Phytophthora infestans = format: in vivo, Phytophthora infestans on potato plants, Miura variety; conditions: 1400 g/hl active principle; average of 3 tests on potato plants in Great Britain, 2002

`Cc1ccc(-c2c(Cl)nc(C#N)n2S(=O)(=O)N(C)C)cc1` [cyazofamide, 2-cyano-4-chloro-′5-(4-methylphenyl)-1-(N,N-dimethylaminosulfamoyl)-imidazole] was tested, and the “% Disease Control: found” value (Plasmopara viticola; 15 ppm, Table 14) was 68%.
Work on `CC(C)OC(=O)N[C@H](C(=O)N[C@H](C)c1nc2ccc(F)cc2s1)C(C)C` [benthiavalicarb] yielded a pest or weed control at 0.25 ppm (Plasmopara viticola; Plasmopara viticola, topical, 168 h, 0.25 ppm, Table 10, read-out: % Disease Control: found) of 47%.
`Cc1ccc(C(C)NC(=O)C(NC(=O)OC(C)C)C(C)C)cc1` (centres unmarked) [iprovalicarb, O-(1-methyl-ethyl)-N-[2-methyl-1-[[[1-(4-methylphenyl)-ethyl]amino]carbonyl]propyl]carbamate] was tested, and the “% Disease Control: found” value (Plasmopara viticola; 0.45 ppm, Table 9) was 50%.
With `N#Cc1c(Cl)c(Cl)c(Cl)c(C#N)c1Cl` [chlorothalonil, 1,3-dicyano-2,4,5,6-tetrachlorobenzene] the pest or weed control at 7.5 ppm (Plasmopara viticola; Plasmopara viticola, topical, 168 h, 7.5 ppm, Table 16, read-out: % Disease Control: found) was 46%.
Compound `COCC(=O)N(c1c(C)cccc1C)N1CCOC1=O` [oxadixyl, 2-methoxy-N-(2-oxo-1,3-oxazolidin-3-yl)aceto-2′,6′-xylidide] has a pest or weed control at 0.2 ppm (Plasmopara viticola; Plasmopara viticola, topical, 168 h, Table 18, read-out: % Disease Control: found) of 49%.
Compound `CC1(c2ccc(Oc3ccccc3)cc2)OC(=O)N(Nc2ccccc2)C1=O` (centres unmarked) [famoxadone, 5-methyl-5-(4-phenoxyphenyl)-3-(phenylamino)oxazolidin-2,4-dione] has a pest or weed control at 0.45 ppm (Plasmopara viticola; Plasmopara viticola, topical, 168 h, 0.45 ppm, Table 12, read-out: % Disease Control: found) of 56%.
Work on `O=[N+]([O-])c1cc(C(F)(F)F)c(Cl)c([N+](=O)[O-])c1Nc1ncc(C(F)(F)F)cc1Cl` [fluazinam, 3-chloro-N-(3-chloro-5-trifluoromethyl-2-pyridyl)-α,α,α-trifluoro-2,6-dinitro-p-toluidine] yielded a pest or weed control at 20 ppm (Plasmopara viticola; Plasmopara viticola, topical, 168 h, 20 ppm, Table 20, read-out: % Disease Control: found) of 48%.
potassium phosphite (K2HPO3+KH2PO3) was tested, and the “% disease control leaves” value (Phytophthora infestans) was 23% and the “% Disease Control: found” value (Plasmopara viticola; 60 ppm, inoculation 7 days after treatment) was 35%.
Compound `COCC(=O)N(c1c(C)cccc1C)[C@H](C)C(=O)OC` [mefenoxam, methyl N-(2-methoxyacetyl)-N-2,6-xylyl-R-alaninate] has a pest or weed control at 0.1 ppm (Plasmopara viticola; Plasmopara viticola, topical, 168 h, 0.10 ppm, Table 8, read-out: % Disease Control: found) of 48%.
Compound `CCNC(=O)NC(=O)C(C#N)=NOC` [cymoxanil, 1-(2-cyano-2-methoxyimino-acetyl)-3-ethyl urea] has a pest or weed control at 30 ppm (Plasmopara viticola; Plasmopara viticola, topical, 168 h, 30 ppm, Table 6, read-out: % Disease Control: found) of 59%.
`COc1ccc(C(=CC(=O)N2CCOCC2)c2ccc(Cl)cc2)cc1OC` [dimethomorph, (E,Z)-4-[3-(4-chlorophenyl)-3-(3,4-dimethoxyphenyl)acryloyl]-morpholine] gave a pest or weed control at 0.45 ppm (Plasmopara viticola; Plasmopara viticola, topical, 168 h, 0.45 ppm, Table 15, read-out: % Disease Control: found) of 73%.
Work on `COCC(=O)N(c1c(C)cccc1C)C(C)C(=O)OC` (centres unmarked) [metalaxyl, methyl N-(2-methoxyacetyl)-N-2,6-xylyl-RS-alaninate] yielded a pest or weed control at 0.2 ppm (Plasmopara viticola; Plasmopara viticola, topical, 168 h, Table 7, read-out: % Disease Control: found) of 45%.
`CO/C=C(/C(=O)OC)c1ccccc1Oc1cc(Oc2ccccc2C#N)ncn1` [azoxystrobin] was tested, and the “% Disease Control: found” value (Plasmopara viticola; 0.11 ppm, Table 11) was 69%.
